Experimental data: publication PMC5259778, “Candidate pheromone receptors of codling moth Cydia pomonella respond to pheromones and kairomones” (Scientific Reports, 2017)

Legend:
CpomOR6a = test: Single sensillum recordings, CpomOR6a expressed in Drosophila at1 OSNs; assay type: cell-based, Cydia pomonella; conditions: for response compared with the solvent: 10 μg doses, Mann-Whitney U Test, p < 0.05; for Spike/s: 10 μg per stimulus
Text: (§1) To perform heterologous expression in D. melanogaster OSNs, CpomORs were amplified using primers in Table 2 and purified PCR products were cloned into the PCR8/GW/TOPO plasmid (Invitrogen) following the recommended protocol. Cassettes with inserts were then transferred from their PCR8/GW/TOPO plasmids to the destination vector (pUASg-HA.attB, constructed by E. Furger and J. Bischof, kindly provided by the Basler group, Zürich), using the Gateway LR Clonase II kit (Invitrogen). The integrity and orientation of inserts was confirmed by sequencing (Sanger sequencer, 3730xl). Transformant UAS-CpomOR3 and UAS-CpomOR1 lines were generated by Best Gene (Chino Hills, CA, USA), using the PhiC31 integrase system, while the transformant UAS-CpomOR6a line was generated in our labs. Briefly, recombinant pUASg-HA.attB-CpomOR plasmids were injected into embryos of a D. melanogaster line containing an attP insertion site within the third chromosome (genotype y1 M{vas-int.Dm}ZH-2A w*; M{3xP3-RFP.attP}ZH-86Fb), leading to non-random integration. To drive expression of CpomORs in at1 OSNs in place of the endogenous receptor Or67d, transformant UAS-CpomOR lines were crossed to the knock-in Or67d^GAL4 line (kindly provided by Barry Dickson) to generate double homozygous lines w^+;UAS-CpomOR; Or67d^GAL4. Additionally, to drive expression of CpomOR3 in ab3A OSNs, the UAS-CpomOR3 line was crossed to the Δhalo;Or22a-Gal4 mutant line[20][57]. To verify insertion of UAS-CpomORs constructs into the genome, gDNA was extracted and used as template in PCR with primers for the full ORF of CpomORs (Table 2).
(§2) CpomOR1 and CpomOR6a expressed in at1 OSNs, and CpomOR3 expressed in ab3A OSNs, were tested through single sensillum recordings (SSR). Three to 8-day-old flies were immobilized in 100 μL pipette tips with only the top half of the head protruding. The left antenna of each insect was gently pushed with a glass capillary against a double-sided adhesive tape placed on a piece of glass. This piece of glass and the pipette tip were fixed with dental wax on a microscope slide. Electrolytically sharpened tungsten electrodes (Harvard Apparatus Ltd, Edenbridge, United Kingdom) were used to penetrate the insect´s body. The reference electrode was manually inserted in the right eye of the fly, while the recording electrode was manoeuvred with a DC-3K micromanipulator equipped with a PM-10 piezo translator (Märzhäuser Wetzler GmbH, Wetzler, Germany) and inserted at the base of the determined sensilla. Signals coming from the olfactory sensory neurons were amplified 10 times with a probe (INR-02, Syntech, Hilversum, the Netherlands), digitally converted through an IDAC-4-USB (Syntech) interface, and visualized and analysed with the software Autospike v. 3.4 (Syntech). A constant flow of 0.65 m/s of humidified air (charcoal-filtered) was delivered through a glass tube to the antenna. The panel of odorants was given to the insect by inserting pipettes containing a piece of filter paper with the correspondent stimulus in a lateral hole of the glass tube and puffing a flow of 2.5 mL of air during 0.5 s through the pipette. For CpomOR1 and CpomOR6a the panel of odorants was prepared by applying 10 μL of a solution of 1.0 μg/μL of the compounds in Supplementary Dataset S2 and Supplementary Dataset S3, for a total amount of 10 μg per stimulus. In the case of CpomOR3, a similar dilution process was used for the dose response experiments of ethyl-(E,Z)-2,4-decadienoate and methyl-(E,Z)-2,4-decadienoate, as well for dose response of experiments of codlemone acetate in CpomOR6a. Compounds were diluted from concentrations ranging from 0.01 ng/μL to 10 μg/μL in decadic steps, allowing reaching concentrations from 100 pg to 100 μg per stimulus when 10 μL of the dilution was applied in the piece of filter paper. […]

CpomOR1 = test: Single sensillum recordings, CpomOR1 expressed in Drosophila at1 OSNs; assay type: cell-based, Cydia pomonella; conditions: 10 μg per stimulus
Text: as §1, §2

With `C/C=C/CCCCCCCCCOC(C)=O` [(E)-10:12Ac, (E)-10-dodecadien-1-yl acetate] the “response compared with the solvent” value (CpomOR6a) was “significantly activated”, the Spike/s (CpomOR6a; replicate 1) was 26 Spike/s and the Spike/s (CpomOR6a; replicate 2) was 26 Spike/s. For the same molecule, the Spike/s (CpomOR6a; replicate 3) was 28 Spike/s, the Spike/s (CpomOR6a; replicate 4) was 60 Spike/s and the Spike/s (CpomOR6a; replicate 5) was 34 Spike/s. The Spike/s (CpomOR6a; replicate 6) was 36 Spike/s, the Spike/s (CpomOR6a; replicate 7) was 50 Spike/s and the Spike/s (CpomOR6a; replicate 8) was 66 Spike/s. For the same molecule, the Spike/s (CpomOR6a; replicate 9) was 26 Spike/s.
Molecule `C/C=C/C=C\CCCCCCCO` [(Z8,E10)-12:OH] has a Spikes/s (CpomOR1; replicate 1) of 0 Spikes/s, a Spikes/s (CpomOR1; replicate 2) of 0 Spikes/s and a Spikes/s (CpomOR1; replicate 3) of 6 Spikes/s. For the same molecule, the Spikes/s (CpomOR1; replicate 4) was 8 Spikes/s and the Spikes/s (CpomOR1; replicate 5) was -4 Spikes/s.
`C=CC(=C)CC/C=C(\C)CCC=C(C)C` [(E)-β-farnesene] was tested, and the Spikes/s (CpomOR1; replicate 1) was 0 Spikes/s, the Spikes/s (CpomOR1; replicate 2) was 4 Spikes/s and the Spikes/s (CpomOR1; replicate 3) was 2 Spikes/s. The Spikes/s (CpomOR1; replicate 4) was 0 Spikes/s and the Spikes/s (CpomOR1; replicate 5) was 2 Spikes/s.
In the case of `C/C=C\C=C\CCCCCCCO` [(E8,Z10)-12:OH], the Spikes/s (CpomOR1; replicate 1) is reported as -2 Spikes/s, the Spikes/s (CpomOR1; replicate 2) is reported as -2 Spikes/s and the Spikes/s (CpomOR1; replicate 3) is reported as 0 Spikes/s. The Spikes/s (CpomOR1; replicate 4) was -2 Spikes/s and the Spikes/s (CpomOR1; replicate 5) was -2 Spikes/s.
With `C/C=C\C=C/CCCCCCCOC(C)=O` [(Z,Z)-8,10:12Ac, (Z,Z)-8,10-dodecadien-1yl acetate] the “response compared with the solvent” value (CpomOR6a) was “significantly activated”, the Spike/s (CpomOR6a; replicate 1) was 14 Spike/s and the Spike/s (CpomOR6a; replicate 2) was 12 Spike/s. For the same molecule, the Spike/s (CpomOR6a; replicate 3) was 10 Spike/s, the Spike/s (CpomOR6a; replicate 4) was 16 Spike/s and the Spike/s (CpomOR6a; replicate 5) was 20 Spike/s. It also gave a Spike/s (CpomOR6a; replicate 6) of 20 Spike/s, a Spike/s (CpomOR6a; replicate 7) of 10 Spike/s and a Spike/s (CpomOR6a; replicate 8) of 32 Spike/s. It also gave a Spike/s (CpomOR6a; replicate 9) of 12 Spike/s.
For Dodecadien-1-yl acetate [12Ac], the Spike/s (CpomOR6a; replicate 1) was 4 Spike/s, the Spike/s (CpomOR6a; replicate 2) was 4 Spike/s and the Spike/s (CpomOR6a; replicate 3) was -2 Spike/s. For the same molecule, the Spike/s (CpomOR6a; replicate 4) was 6 Spike/s, the Spike/s (CpomOR6a; replicate 5) was 10 Spike/s and the Spike/s (CpomOR6a; replicate 6) was 6 Spike/s. For the same molecule, the Spike/s (CpomOR6a; replicate 7) was 0 Spike/s, the Spike/s (CpomOR6a; replicate 8) was 12 Spike/s and the Spike/s (CpomOR6a; replicate 9) was -12 Spike/s.
`CCC/C=C\CCCCCCCOC(C)=O` [(Z)-8:12Ac, (Z)-8-dodecadien-1yl acetate] gave a Spike/s (CpomOR6a; replicate 1) of 0 Spike/s, a Spike/s (CpomOR6a; replicate 2) of 0 Spike/s and a Spike/s (CpomOR6a; replicate 3) of 0 Spike/s. It also gave a Spike/s (CpomOR6a; replicate 4) of 4 Spike/s, a Spike/s (CpomOR6a; replicate 5) of -2 Spike/s and a Spike/s (CpomOR6a; replicate 6) of 22 Spike/s. For the same molecule, the Spike/s (CpomOR6a; replicate 7) was 32 Spike/s, the Spike/s (CpomOR6a; replicate 8) was 6 Spike/s and the Spike/s (CpomOR6a; replicate 9) was -8 Spike/s.
`C/C=C/C=C\CCCCCCCOC(C)=O` [(Z,E)-8,10:12Ac, (Z,E)-8,10-dodecadien-1yl acetate] was tested, and the Spike/s (CpomOR6a; replicate 1) was 10 Spike/s, the Spike/s (CpomOR6a; replicate 2) was 2 Spike/s and the Spike/s (CpomOR6a; replicate 3) was -4 Spike/s. It also gave a Spike/s (CpomOR6a; replicate 4) of 8 Spike/s, a Spike/s (CpomOR6a; replicate 5) of 0 Spike/s and a Spike/s (CpomOR6a; replicate 6) of 18 Spike/s. For the same molecule, the Spike/s (CpomOR6a; replicate 7) was 26 Spike/s, the Spike/s (CpomOR6a; replicate 8) was 40 Spike/s and the Spike/s (CpomOR6a; replicate 9) was 10 Spike/s.
For `C/C=C\CCCCCCCCCOC(C)=O` [(Z)-10:12Ac, (Z)-10-dodecadien-1-yl acetate], the Spike/s (CpomOR6a; replicate 1) was 0 Spike/s, the Spike/s (CpomOR6a; replicate 2) was 6 Spike/s and the Spike/s (CpomOR6a; replicate 3) was 2 Spike/s. It also gave a Spike/s (CpomOR6a; replicate 4) of 2 Spike/s, a Spike/s (CpomOR6a; replicate 5) of 6 Spike/s and a Spike/s (CpomOR6a; replicate 6) of 12 Spike/s. For the same molecule, the Spike/s (CpomOR6a; replicate 7) was 14 Spike/s, the Spike/s (CpomOR6a; replicate 8) was 4 Spike/s and the Spike/s (CpomOR6a; replicate 9) was 4 Spike/s.
For `CCC/C=C/CCCCCCCOC(C)=O` [(E)-8:12Ac, (E)-8-dodecadien-1-yl acetate], the Spike/s (CpomOR6a; replicate 1) was 10 Spike/s, the Spike/s (CpomOR6a; replicate 2) was 0 Spike/s and the Spike/s (CpomOR6a; replicate 3) was 4 Spike/s. It also gave a Spike/s (CpomOR6a; replicate 4) of 4 Spike/s, a Spike/s (CpomOR6a; replicate 5) of 12 Spike/s and a Spike/s (CpomOR6a; replicate 6) of 26 Spike/s. It also gave a Spike/s (CpomOR6a; replicate 7) of 30 Spike/s, a Spike/s (CpomOR6a; replicate 8) of 30 Spike/s and a Spike/s (CpomOR6a; replicate 9) of 10 Spike/s.
For `C/C=C\C=C\CCCCCCCOC(C)=O` [(E,Z)-8,10:12Ac, (E,Z)-8,10-dodecadien-1yl acetate], the “response compared with the solvent” value (CpomOR6a) was “significantly activated”, the Spike/s (CpomOR6a; replicate 1) was 6 Spike/s and the Spike/s (CpomOR6a; replicate 2) was 10 Spike/s. For the same molecule, the Spike/s (CpomOR6a; replicate 3) was 16 Spike/s, the Spike/s (CpomOR6a; replicate 4) was 6 Spike/s and the Spike/s (CpomOR6a; replicate 5) was 8 Spike/s. The Spike/s (CpomOR6a; replicate 6) was 24 Spike/s, the Spike/s (CpomOR6a; replicate 7) was 16 Spike/s and the Spike/s (CpomOR6a; replicate 8) was 34 Spike/s. For the same molecule, the Spike/s (CpomOR6a; replicate 9) was 2 Spike/s.
